From patent publication US11702450B2, “Proteogenomic-based method for identifying tumor-specific antigens” (UNIVERSITÉ DE MONTRÉAL, priority 2018, dated 2023)
Entries after “also recorded” stand apart in the source; their conditions may differ.

Key:
[1] = literature references 9, 37; cited from earlier work
CD8^+ T cells = type: cell-based, C57BL/6 mice
EL4 cells = assay: Immunization with TSA-pulsed DCs followed by live EL4 cell challenge and rechallenge; type: in vivo, C57BL/6 mice; conditions: for day-150 survival rate / mice with prolonged survival after priming: immunized twice with TSA-pulsed DCs, 5×10^5 live EL4 cells i.v. day 0; for outcome of rechallenge with live EL4 cells at day 150: surviving immunized mice rechallenged at day 150
Protocol: Generation of bone marrow-derived dendritic cells (DCs), mouse immunization and EL4 cell injection. Bone marrow—derived DCs were generated as previously described^13a,14a. For mouse immunization, DCs from male C57BL/6 mice were pulsed with 2 μM of the selected peptide for 3 hours, then washed. 8- to 12-week old female C57BL/6 mice were injected i.v. with 10^6 individually peptide-pulsed DCs at day −14 and −7, or with irradiated EL4 cells (10,000 cGy). As negative control, C57BL/6 female mice were immunized with unpulsed DCs. At day 0 and day 150, mice were injected i.v. with 5×10^5 EL4 cells and were monitored for weight loss, paralysis, or tumor outgrowth.

## SPSYVYHQF (listed as Mus musculus) [AH1 peptide, aeTSA previously identified on CT26 cells]
[1]
  antitumor responses and adverse effects: elicits strong antitumor responses devoid of adverse effects

## TSYKFESV [B8R, reference compound]
CD8^+ T cells
  frequency of antigen-specific CD8 T cells in naive mice: within range of those observed in previous studies

## TVPLNHNTL (listed as Mus musculus) [EL4 TSA]
EL4 cells
  day-150 survival rate: surviving up day 150
  mice with prolonged survival after priming: 10%
  outcome of rechallenge with live EL4 cells at day 150: survived the rechallenge
CD8^+ T cells
  frequency of antigen-specific CD8 T cells in naive mice: less than one

## HGIRNASFI (listed as Murine cytomegalovirus) [M45, H-2db, reference compound]
CD8^+ T cells
  frequency of antigen-specific CD8 T cells in naive mice: within range of those observed in previous studies

## VNYIHRNV (VNYXHRNV; VARIANT (4)..(4) Xaa is Ile or Leu; listed as Mus musculus)
EL4 cells
  day-150 survival rate: 20%
  outcome of rechallenge with live EL4 cells at day 150: not sufficient to protect mice upon rechallenge; also recorded: no significant protection upon rechallenge
EL4 cells; surviving immunized mice rechallenged with EL4 cells at day 150
  time to death from leukemia after rechallenge: ≤ 50 days
CD8^+ T cells
  frequency of antigen-specific CD8 T cells in naive mice: frequencies similar to those of the viral controls
  tetramer^+ CD8 T cells in long-term survivors after rechallenge: large population of tetramer^+ cells

## VNYLHRNV (VNYXHRNV; VARIANT (4)..(4) Xaa is Ile or Leu; listed as Mus musculus)
EL4 cells; immunization with TSA-pulsed DCs
  rank of protection against EL4 challenge: best protection
EL4 cells
  day-150 survival rate: 100%
  outcome of rechallenge with live EL4 cells at day 150: survived the rechallenge
CD8^+ T cells
  frequency of antigen-specific CD8 T cells in naive mice: frequencies similar to those of the viral controls

## KAVYNFATC [gp-33, reference compound]
CD8^+ T cells
  frequency of antigen-specific CD8 T cells in naive mice: within range of those observed in previous studies

## IILEFHSL (listed as Mus musculus) [EL4 TSA]
EL4 cells
  mice with prolonged survival after priming: 10%
CD8^+ T cells
  frequency of antigen-specific CD8 T cells in naive mice: less than one
